Laboratory results reported in US20150105252A1, “SUBSTITUTED PYRAZOLES AS HERBICIDES” (E I DU PONT DE NEMOURS AND COMPANY, priority 2013, published 2015).

Legend:
barnyardgrass [1] = test: Test A preemergence; type: in vivo, Echinochloa crus-galli; conditions: preemergence
In short: (§1)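 Greenhouse test in loam soil/sand blend; compounds formulated in non-phytotoxic solvent with surfactant, applied as preemergence directed soil spray or postemergence to plants 2–10 cm tall at one- to two-leaf stage. Injury rated visually versus untreated controls after approximately 10 days on a 0 (no effect) to 100 (complete control) scale.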

barnyardgrass [2] = test: Test B flood; type: in vivo, Echinochloa crus-galli; conditions: 250 g ai/ha, visual rating on 0 to 100 scale (0 no effect, 100 complete control), 13 to 15 days
In short: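 Greenhouse assay lasting 13 to 15 days. Treatment was into water flooding pots 3 cm deep, at the 2-leaf stage, with that level sustained afterwards. Scores compare treated with control plants visually, 100 denoting complete control and 0 no effect; a dash marks no test result.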

morningglory = test: Test A preemergence; type: in vivo, Ipomoea spp.; conditions: preemergence
In short: as §1

velvetleaf [3] = test: Test A preemergence; type: in vivo, Abutilon theophrasti; conditions: preemergence
In short: as §1

oilseed rape = test: Test C preemergence; type: in vivo, Brassica napus
Excerpt: (§2) Seeds of plant species selected from blackgrass (Alopecurus myosuroides), ryegrass, Italian (Italian ryegrass, Lolium multiflorum), wheat (winter wheat, Triticum aestivum), galium (catchweed bedstraw, Galium aparine), corn (Zea mays), crabgrass, large (large crabgrass, Digitaria sanguinalis), foxtail, giant (giant foxtail, Setaria faberii), johnsongrass (Sorghum halepense), lambsquarters (Chenopodium album), morningglory (Ipomoea coccinea), nutsedge, yellow (yellow nutsedge, Cyperus esculentus), pigweed (redroot pigweed, Amaranthus retroflexus), ragweed (common ragweed, Ambrosia elation), soybean (Glycine max), barnyardgrass (Echinochloa crus-galli), oilseed rape (Brassica napus), waterhemp (common waterhemp, Amaranthus rudis), oat, wild (wild oat, Avena fatua), kochia (Kochia scoparia), Surinam grass (Brachiaria decumbens), foxtail, green (green foxtail, Setaria viridis), goosegrass (Eleusine indica), bromegrass, downy (downy bromegrass, Bromus tectorum), nightshade (eastern black nightshade, Solanum ptycanthum), cocklebur (common cocklebur, Xanthium strumarium), cupgrass, woolly (woolly cupgrass, Eriochloa villosa), bermudagrass (Cynodon dactylon), sunflower, (common oilseed sunflower, Helianthus annuus), Russian thistle (Salsola kali), and velvetleaf (Abutilon theophrasti) were planted into a blend of loam soil and sand and treated preemergence with test chemicals formulated in a non-phytotoxic solvent mixture which included a surfactant.
(§3) At the same time, plants selected from these crop and weed species and also chickweed (common chickweed, Stellaria media), canarygrass (littleseed canarygrass, Phalaris minor), and deadnettle (henbit deadnettle, Lamium amplexicaule), were planted in pots containing Redi-Earth® planting medium (Scotts Company, 14111 Scottslawn Road, Marysville, Ohio 43041) comprising spaghnum peat moss, vermiculite, wetting agent and starter nutrients and treated with postemergence applications of test chemicals formulated in the same manner. Plants ranged in height from 2 to 18 cm (1- to 4-leaf stage) for postemergence treatments. Treated plants and controls were maintained in a greenhouse for 13 to 15 days, after which time all species were compared to controls and visually evaluated. Plant response ratings, summarized in Table C, are based on a scale of 0 to 100 where 0 is no effect and 100 is complete control. A dash (-) response means no test result.

velvetleaf [4] = test: Test A postemergence; type: in vivo, Abutilon theophrasti
In short: as §1

corn = test: Test C preemergence; type: in vivo, Zea mays
Excerpt: as §2, §3

johnsongrass = test: Test C preemergence; type: in vivo, Sorghum halepense
Excerpt: as §2, §3

ryegrass, Italian = test: Test C preemergence; type: in vivo, Lolium multiflorum
Excerpt: as §2, §3

foxtail, giant [5] = test: Test A preemergence; type: in vivo, Setaria faberii; conditions: preemergence
In short: as §1

foxtail, giant [6] = test: Test C preemergence; type: in vivo, Setaria faberii
Excerpt: as §2, §3

crabgrass, large = test: Test C preemergence; type: in vivo, Digitaria sanguinalis
In short: (§4)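 Pre- and postemergence greenhouse screen; vehicle was a non-phytotoxic solvent mix with surfactant. Preemergence: treatment applied right after sowing into loam and sand. Postemergence: treated at 1–4 leaves. Visual rating at 13–15 days, 100 = complete control.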

ragweed = test: Test C preemergence; type: in vivo, Ambrosia elation
In short: as §4

barnyardgrass [7] = test: Test C preemergence; type: in vivo, Echinochloa crus-galli
In short: as §4

[8] = 125 g ai/ha, visual injury, 0 to 100 scale, approx. 10 days
[9] = 500 g ai/ha, visual injury after approx. 10 days, 0 to 100 scale (0 no effect, 100 complete control)
[10] = preemergence, 31 g ai/ha, visual rating, scale 0 to 100 (0 no effect, 100 complete control), 13 to 15 days
[11] = preemergence, 62 g ai/ha, 13 to 15 days, scale 0 to 100, 0 = no effect, 100 = complete control
[12] = preemergence, 125 g ai/ha, scale 0 to 100, 0 is no effect, 100 is complete control

CCCc1cc(C(=O)NCC)nn1Cc1ccnc(C(F)(F)F)c1 [Compound 95]
80: Corn plant response rating (corn; [12]) | Ragweed plant response rating (ragweed; [10])
85: Plant response rating, Johnsongrass (johnsongrass; [11]) | Plant response rating, Ryegrass, Italian (ryegrass, Italian; [11])
40: Plant response rating, Barnyardgrass (barnyardgrass [2])
35: Corn plant response rating (corn; [10])
60: Johnsongrass plant response rating (johnsongrass; [10])
98: Crabgrass, Large plant response rating (crabgrass, large; [10]) | Plant response rating, Crabgrass, Large (crabgrass, large; [11]) | Crabgrass, Large plant response rating (crabgrass, large; [12])
90: Velvetleaf plant response rating (velvetleaf [3]; [8]) | Velvetleaf plant response rating (velvetleaf [4]; postemergence, 125 g ai/ha, about 10 days, visual rating on 0 to 100 scale (0 no effect, 100 complete control))
95: Plant response rating (scale of 0 to 100), Corn (corn; Preemergence, 250 g ai/ha) | Johnsongrass plant response rating (johnsongrass; [12]) | Ryegrass, Italian plant response rating (ryegrass, Italian; [12]) | Plant response rating, Ragweed (ragweed; [11])
50: Plant response rating, Corn (corn; [11]) | Ryegrass, Italian plant response rating (ryegrass, Italian; [10])
100: Barnyardgrass plant response rating (barnyardgrass [1]; [8]) | Barnyardgrass plant response rating (barnyardgrass [1]; [9]) | Morningglory plant response rating (morningglory; [8]) | Morningglory plant response rating (morningglory; [9]) | Velvetleaf plant response rating (velvetleaf [3]; [9]) | Plant response rating (scale of 0 to 100), Oilseed Rape (oilseed rape; Preemergence, 250 g ai/ha) | Oilseed Rape plant response rating (oilseed rape; [10]) | Plant response rating, Oilseed Rape (oilseed rape; [11]) | Oilseed Rape plant response rating (oilseed rape; [12]) | Velvetleaf plant response rating (velvetleaf [4]; Postemergence, 500 g ai/ha, visual rating after approx. 10 days, 0 to 100 scale (0 no effect, 100 complete control)) | Plant response rating (scale of 0 to 100), Johnsongrass (johnsongrass; Preemergence, 250 g ai/ha) | Plant response rating (scale of 0 to 100), Ryegrass, Italian (ryegrass, Italian; Preemergence, 250 g ai/ha) | Foxtail, Giant plant response rating (foxtail, giant [5]; [8]) | Foxtail, Giant plant response rating (foxtail, giant [5]; [9]) | Plant response rating (scale of 0 to 100), Foxtail, Giant (foxtail, giant [6]; Preemergence, 250 g ai/ha) | Foxtail, Giant plant response rating (foxtail, giant [6]; [10]) | Plant response rating, Foxtail, Giant (foxtail, giant [6]; [11]) | Foxtail, Giant plant response rating (foxtail, giant [6]; [12]) | Plant response rating (scale of 0 to 100), Crabgrass, Large (crabgrass, large; Preemergence, 250 g ai/ha) | Plant response rating (scale of 0 to 100), Ragweed (ragweed; Preemergence, 250 g ai/ha) | Ragweed plant response rating (ragweed; [12]) | Plant response rating (scale of 0 to 100), Barnyardgrass (barnyardgrass [7]; Preemergence, 250 g ai/ha) | Barnyardgrass plant response rating (barnyardgrass [7]; preemergence, 31 g ai/ha, scale 0 to 100 (0 no effect, 100 complete control), 13 to 15 days) | Plant response rating, Barnyardgrass (barnyardgrass [7]; [11]) | Barnyardgrass plant response rating (barnyardgrass [7]; [12])
